From patent publication US12281080B2, “Quinoline-based compounds and methods of inhibiting CDK8/19” (University of South Carolina, priority 2018, dated 2025)
pIC50, pKd: −log10 of the molar value. Like-named read-outs stand apart in the source and are kept apart here.

Key:
[1] = tested on: CDK8/19-mediated NFκB-driven transcription; assay: NFκB-dependent luciferase reporter assay in parental 293 reporter cells; format: cell-based, human; conditions: for Inhibition of NFκB reporter activity / inhibition at 1 µM: 1 uM
MV4-11 cells = assay: MV4-11-Luc proliferation assay (BLI); format: cell-based; conditions: Homo sapiens, MV4-11, 168 h; 7 days
Procedure: The anti-leukemic activity was evaluated with a MV4-11 assay. The population of MV4-11 cells, which depend on CDK8/19 for their proliferation, was made to express Luciferase and ZsGreen by lenvtiral infection with pHIV-Luc-ZsGreen, to enable leukemia growth analysis by bioluminescence imaging (BLI). The initial Luciferase-ZsGreen transduced cell population was sorted for ZsGreen positivity with fluorescence activated cell sorting. The MV4-11 assay was performed in 96-well plates by treating the MV4-11-Luc cells with testing compounds at different concentrations for 7 days, followed by BLI to quantify the effects of test articles on cell proliferation.

HL60-Luc cells = assay: HL60-Luc proliferation assay (BLI); format: cell-based; conditions: HL-60-Luc, 168 h; 7 days
Procedure: The anti-leukemic activity was also evaluated with a HL60 assay. The HL60 assay was performed by a similar procedure as MV4-11 assay. A derivative of the HL-60 leukemia cell line was generated to express Luciferase and ZsGreen by lentiviral infection with pHIV-Luc-ZsGreen, to enable leukemia growth analysis by bioluminescence imaging (BLI). The initial Luciferase-ZsGreen transduced cell population was sorted for ZsGreen positivity with fluorescence activated cell sorting and individual clones were tested for luciferase expression. […] The HL-60 assay was performed in 96-well plates by treating the HL60-Luc cells with testing compounds at different concentrations for 7 days, followed by BLI to quantify the effects of test articles on cell proliferation.

[2] = molecular target: CDK8 in complex with Cyclin C (Homo sapiens (Human), UniProt P49336); assay: LanthaScreen Eu Kinase Binding Assay
Excerpt: The binding of the tracer to the kinase is detected using a europium-labeled anti-tag antibody, which binds to the kinase of interest. […] The binding of an inhibitor to the kinase competes for binding with the tracer, resulting in a loss of FRET.

CXCL1 = assay: QPCR gene expression in TNFα-treated HEK293 cells; format: cell-based, human; conditions: 1 μM, TNFα-treated HEK293 cells, QPCR; for inhibition at 1 µM: Homo sapiens, read-out: Inhibition at 1 μM (% Ctrl) CXCL1
Excerpt: (§1) Two types of cell-based assays for CDK8/19 inhibition were used to test the efficacy of quinoline quinolone compounds described herein (FIG. 3A). The first cell-based assay, which measures the effects of CDK8/19 inhibitors on RNA levels of CDK8/19-regulated genes by quantitative reverse transcription-PCR (QPCR), is based on the ability of CDK8/19 inhibitors to suppress the induction of NFκB-inducible genes by TNFα and to inhibit basal expression of MYC in human embryonic kidney (HEK) 293 cells, as previously described. In this assay, 293 cells growing in DMEM (High-glucose) media supplemented with 10% FBS are pre-treated with the tested inhibitors or DMSO control for 1 hour and then treated with 10 ng/mL TNFα (an activator of NFκB) for 2 hours (in the presence or absence of the tested inhibitors), followed by RNA extraction and QPCR analysis of RNA expression of specific genes conducted as described (Chen et al., ibid), using housekeeping genes RPL13A and GAPDH as normalization standards. […] All the quinoline derivatives inhibited the expression of all three genes.

IL8 = assay: QPCR gene expression in TNFα-treated HEK293 cells; format: cell-based, human; conditions: 1 μM, TNFα-treated HEK293 cells, QPCR; for inhibition at 1 µM: Homo sapiens, read-out: Inhibition at 1 μM (% Ctrl) IL8
Excerpt: as §1

MYC = assay: QPCR gene expression in TNFα-treated HEK293 cells; format: cell-based, human; conditions: 1 μM, TNFα-treated HEK293 cells, QPCR; for inhibition at 1 µM: Homo sapiens, read-out: Inhibition at 1 μM (% Ctrl) MYC
Excerpt: as §1

CDK8/19 = assay: Wash-off assay, MYC and JUN expression in 293 cells (QPCR); format: cell-based, human; conditions: 1 μM for 2 hours, then wash-off
Procedure: RNA was extracted at different time points after wash-off (up to 24 hrs) and expression of MYC and JUN genes that are CDK8/19-dependent in these cells was measured by QPCR. […] In contrast, after Senexin C treatment and wash-off, the effects of Senexin C were largely retained for at least 6 hrs after wash-off.

[3] = Mouse pharmacokinetics, intraperitoneal, serum; format: in vivo, mice; conditions: i.p. 27 mg/kg, male Balb/c mice
Procedure: […] Blood samples were collected at different time points (5 mice per time point) and Senexin C concentration in the serum was measured by LC/MS/MS.

CDK8 = CDK8 (Homo sapiens (Human), UniProt P49336); assay: DiscoverX Kd assay; conditions: average from duplicate measurements
HASPIN = HASPIN (Homo sapiens (Human), UniProt Q8TF76); assay: DiscoverX Kd assay; conditions: average from duplicate measurements
MAP4K2 = MAP4K2 (Homo sapiens (Human), UniProt Q12851); assay: DiscoverX Kd assay; conditions: average from duplicate measurements
MYO3B = MYO3B (Homo sapiens (Human), UniProt Q8WXR4); assay: DiscoverX Kd assay
[4] = tested on: NFκB-dependent promoter in CDK8/19 deficient (double-knockout) reporter cells; assay: NFκB-dependent luciferase reporter assay, CDK8/19 double-knockout vs wild-type 293 cells; conditions: double-knockout vs parental reporter cells
Excerpt: The second cell-based assay measures the effects of CDK8/19 on the expression of firefly luciferase reporter from a NFκB-dependent promoter in 293 cells.

[5] = Homo sapiens, 293/NFkB-luc, read-out: IC50 (293-NFKB-Luc)
[6] = parental 293-derived reporter cell line, read-out: HEK293 NFKB CDK8 Reporter IC50

CDK8 in complex with Cyclin C, sequence (P49336 whole entry): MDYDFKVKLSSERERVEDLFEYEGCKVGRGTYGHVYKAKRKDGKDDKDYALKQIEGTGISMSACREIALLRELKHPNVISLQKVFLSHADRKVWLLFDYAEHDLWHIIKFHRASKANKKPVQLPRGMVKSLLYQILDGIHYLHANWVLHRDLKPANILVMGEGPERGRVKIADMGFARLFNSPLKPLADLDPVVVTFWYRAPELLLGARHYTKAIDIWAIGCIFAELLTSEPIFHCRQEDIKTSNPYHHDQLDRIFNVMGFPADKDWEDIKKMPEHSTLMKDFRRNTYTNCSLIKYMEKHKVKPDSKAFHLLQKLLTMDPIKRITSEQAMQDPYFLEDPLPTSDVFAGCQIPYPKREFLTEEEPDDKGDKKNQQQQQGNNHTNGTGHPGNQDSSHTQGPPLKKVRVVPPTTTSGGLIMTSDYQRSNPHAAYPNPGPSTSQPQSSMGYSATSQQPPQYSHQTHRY
CDK8 in complex with Cyclin C, sequence (P24863 whole entry partner): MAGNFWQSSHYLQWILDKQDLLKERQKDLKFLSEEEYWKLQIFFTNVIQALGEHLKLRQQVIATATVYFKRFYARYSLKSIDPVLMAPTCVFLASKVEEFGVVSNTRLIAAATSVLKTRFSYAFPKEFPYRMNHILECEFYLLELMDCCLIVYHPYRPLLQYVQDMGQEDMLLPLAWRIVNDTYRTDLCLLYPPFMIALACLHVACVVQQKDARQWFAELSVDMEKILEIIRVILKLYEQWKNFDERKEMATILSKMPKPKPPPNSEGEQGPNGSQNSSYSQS
CDK8, sequence (P49336 whole entry): as the sequence (P49336 whole entry) above
HASPIN, sequence (Q8TF76 whole entry): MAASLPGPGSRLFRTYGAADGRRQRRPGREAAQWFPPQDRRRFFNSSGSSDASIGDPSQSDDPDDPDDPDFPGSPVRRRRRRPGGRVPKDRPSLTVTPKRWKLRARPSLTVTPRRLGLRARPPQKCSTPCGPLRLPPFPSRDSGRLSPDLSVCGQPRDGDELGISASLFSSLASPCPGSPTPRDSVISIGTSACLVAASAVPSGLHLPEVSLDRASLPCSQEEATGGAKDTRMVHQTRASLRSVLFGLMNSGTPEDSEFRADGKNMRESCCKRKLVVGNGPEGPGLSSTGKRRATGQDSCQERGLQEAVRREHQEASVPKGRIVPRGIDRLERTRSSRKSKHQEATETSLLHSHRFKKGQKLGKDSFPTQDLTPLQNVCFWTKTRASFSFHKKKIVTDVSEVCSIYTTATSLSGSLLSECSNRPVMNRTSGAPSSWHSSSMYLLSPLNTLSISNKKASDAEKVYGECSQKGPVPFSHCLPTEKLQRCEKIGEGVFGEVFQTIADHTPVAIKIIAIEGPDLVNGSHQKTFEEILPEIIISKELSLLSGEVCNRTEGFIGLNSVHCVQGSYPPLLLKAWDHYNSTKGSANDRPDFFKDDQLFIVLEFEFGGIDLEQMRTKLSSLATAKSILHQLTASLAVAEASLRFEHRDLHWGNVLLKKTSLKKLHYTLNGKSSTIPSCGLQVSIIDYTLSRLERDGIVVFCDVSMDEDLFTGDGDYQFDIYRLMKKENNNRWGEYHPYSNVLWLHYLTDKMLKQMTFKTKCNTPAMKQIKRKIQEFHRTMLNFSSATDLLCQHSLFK
MYO3B, sequence (Q8WXR4 whole entry): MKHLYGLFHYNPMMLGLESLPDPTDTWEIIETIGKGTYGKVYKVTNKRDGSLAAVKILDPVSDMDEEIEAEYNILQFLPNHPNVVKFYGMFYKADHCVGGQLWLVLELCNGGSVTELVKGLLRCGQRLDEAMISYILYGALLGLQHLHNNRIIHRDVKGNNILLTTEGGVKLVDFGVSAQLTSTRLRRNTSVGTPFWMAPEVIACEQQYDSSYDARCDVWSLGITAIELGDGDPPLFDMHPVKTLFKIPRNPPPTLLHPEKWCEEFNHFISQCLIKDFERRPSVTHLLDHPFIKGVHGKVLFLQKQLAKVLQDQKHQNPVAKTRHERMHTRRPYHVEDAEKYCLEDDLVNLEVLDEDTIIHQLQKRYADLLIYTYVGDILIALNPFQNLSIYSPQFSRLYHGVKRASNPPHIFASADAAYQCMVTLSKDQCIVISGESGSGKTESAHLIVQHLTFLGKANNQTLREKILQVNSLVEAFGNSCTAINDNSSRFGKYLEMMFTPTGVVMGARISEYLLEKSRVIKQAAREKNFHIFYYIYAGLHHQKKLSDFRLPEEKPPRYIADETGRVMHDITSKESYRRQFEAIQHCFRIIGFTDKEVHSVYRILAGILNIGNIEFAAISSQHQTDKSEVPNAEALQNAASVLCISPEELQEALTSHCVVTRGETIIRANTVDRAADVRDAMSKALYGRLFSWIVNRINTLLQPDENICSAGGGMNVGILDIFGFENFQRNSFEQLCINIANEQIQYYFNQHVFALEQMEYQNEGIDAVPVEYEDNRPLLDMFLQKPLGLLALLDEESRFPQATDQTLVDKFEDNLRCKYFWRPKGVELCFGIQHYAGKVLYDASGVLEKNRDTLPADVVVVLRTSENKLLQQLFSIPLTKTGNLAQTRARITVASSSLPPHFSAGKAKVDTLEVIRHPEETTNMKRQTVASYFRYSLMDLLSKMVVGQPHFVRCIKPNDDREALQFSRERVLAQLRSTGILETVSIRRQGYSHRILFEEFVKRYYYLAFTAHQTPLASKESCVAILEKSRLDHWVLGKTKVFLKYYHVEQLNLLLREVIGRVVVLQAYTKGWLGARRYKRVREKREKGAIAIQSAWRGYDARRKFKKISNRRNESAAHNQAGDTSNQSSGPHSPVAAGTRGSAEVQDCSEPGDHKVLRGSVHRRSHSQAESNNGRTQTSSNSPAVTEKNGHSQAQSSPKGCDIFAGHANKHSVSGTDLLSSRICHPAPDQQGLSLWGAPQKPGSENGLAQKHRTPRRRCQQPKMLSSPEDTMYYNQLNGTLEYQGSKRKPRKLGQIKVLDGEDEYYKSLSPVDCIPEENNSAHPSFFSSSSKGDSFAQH
MAP4K2, sequence (Q12851 whole entry): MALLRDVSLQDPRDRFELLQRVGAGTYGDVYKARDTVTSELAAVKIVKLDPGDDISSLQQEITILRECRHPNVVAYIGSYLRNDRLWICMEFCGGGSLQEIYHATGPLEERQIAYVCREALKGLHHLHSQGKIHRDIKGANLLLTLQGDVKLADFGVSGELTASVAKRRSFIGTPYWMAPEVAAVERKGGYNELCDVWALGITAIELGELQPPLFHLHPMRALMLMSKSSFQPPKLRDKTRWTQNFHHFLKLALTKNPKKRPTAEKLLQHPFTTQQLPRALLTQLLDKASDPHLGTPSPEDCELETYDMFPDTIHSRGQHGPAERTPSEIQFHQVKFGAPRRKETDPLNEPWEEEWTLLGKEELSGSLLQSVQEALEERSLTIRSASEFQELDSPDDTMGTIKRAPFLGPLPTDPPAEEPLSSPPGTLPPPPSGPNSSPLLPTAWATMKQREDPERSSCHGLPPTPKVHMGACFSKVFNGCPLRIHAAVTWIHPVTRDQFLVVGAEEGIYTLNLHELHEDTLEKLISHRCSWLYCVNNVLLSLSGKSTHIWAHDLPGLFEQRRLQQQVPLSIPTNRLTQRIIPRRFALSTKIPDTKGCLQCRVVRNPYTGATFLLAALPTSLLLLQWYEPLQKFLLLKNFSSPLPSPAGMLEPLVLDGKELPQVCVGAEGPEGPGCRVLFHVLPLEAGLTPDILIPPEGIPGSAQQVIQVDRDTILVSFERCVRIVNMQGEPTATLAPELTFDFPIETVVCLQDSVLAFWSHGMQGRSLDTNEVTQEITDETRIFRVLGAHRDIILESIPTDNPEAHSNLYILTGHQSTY

SMILES	pIC50 [1, 5]	pIC50 (MV4-11 cells)	pIC50 (HL60-Luc cells)	pIC50 [2]	further results
Clc1ccc2nccc(NCCc3ccccc3)c2c1 [compound 6145, 6-chloro-N-phenethylquinolin-4-amine]	–	–	–	–	Inhibition of NFκB reporter activity [1]: N.A. (8% inh. at 1 uM); inhibition at 1 µM ([1]; Homo sapiens): < 15%
N#Cc1ccc2nccc(NCCc3ccc4cc(C(=O)N5CCS(=N)(=O)CC5)ccc4c3)c2c1 [compound 6299, 4-[2-[6-(1-imino-1-oxo-1,4-thiazinane-4-carbonyl)-2-naphthyl]ethylamino]quinoline-6-carbonitrile]	6.67	6.56	6.59	8.34	–
CN(CCCNC(=O)OC(C)(C)C)C(=O)c1ccc2cc(CCNc3ccnc4ccc(C#N)cc34)ccc2c1 [compound 6336, tert-butyl-N-[3-[[6-[2-[(6-cyano-4-quinolyl)amino]ethyl]naphthalene-2-carbonyl]-methyl-amino]propyl]carbamate]	6.68	6.74	6.81	8.03	–
CCCNc1ccnc2ccc(C#N)cc12 [compound 6134, 4-(propylamino)quinoline-6-carbonitrile]	–	–	–	–	inhibition at 1 µM (CXCL1): 72.2%; inhibition at 1 µM (IL8): 62.1%; inhibition at 1 µM (MYC): 57.2%
N#Cc1ccc2nccc(NCCc3ccc4cc(C(=O)N5CCN(CCCO)CC5)ccc4c3)c2c1 [compound 6216, 4-((2-(6-(4-(3-hydroxypropyl)piperazine-1-carbonyl)naphthalen-2-yl)ethyl)amino)quinoline-6-carbonitrile]	–	–	6.79	–	–
Ic1ccc2nccc(NCCc3ccccc3)c2c1 [compound 6147, 6-iodo-N-phenethylquinolin-4-amine]	–	–	–	–	inhibition at 1 µM ([1]; Homo sapiens): < 15%
Nc1ccc2nccc(NCCc3ccccc3)c2c1 [compound 6164, N4-phenethylquinoline-4,6-diamine]	–	–	–	–	inhibition at 5 µM ([1]; Homo sapiens, 5 uM): 5%
CN(CCCN)C(=O)c1ccc2cc(CCNc3ccnc4ccc(C#N)cc34)ccc2c1 [compound 6337, N-(3-aminopropyl)-6-[2-[(6-cyano-4-quinolyl)amino]ethyl]-N-methyl-naphthalene-2-carboxamide]	6.95	–	6.59	8.04	–
N#Cc1ccc2nccc(NCCc3ccc4cc(C(=O)N5CCSCC5)ccc4c3)c2c1 [compound 6294, 4-[2-[6-(thiomorpholine-4-carbonyl)-2-naphthyl]ethylamino]quinoline-6-carbonitrile]	6.97	7.04	7.13	8.01	–
N#Cc1ccc2nccc(NCCc3ccc4cc(C(=O)N5CCNCC5)ccc4c3)c2c1 [compound 6283, 4-((2-(6-(piperazine-1-carbonyl)naphthalen-2-yl)ethyl)amino)quinoline-6-carbonitrile]	–	–	6.12	–	–
CC(C)(C)OC(=O)N1CCN(C(=O)c2ccc3cc(CCNc4ccnc5ccc(C#N)cc45)ccc3c2)CC1 [compound 6440, tert-butyl 4-[6-[2-[(6-cyano-4-quinolyl)amino]ethyl]naphthalene-2-carbonyl]piperazine-1-carboxylate]	6.86	6.84	7.17	7.72	–
CC(=O)N1CCN(C(=O)c2ccc3cc(CCNc4ccnc5ccc(C#N)cc45)ccc3c2)CC1 [compound 6326, 4-[2-[6-(4-acetylpiperazine-1-carbonyl)-2-naphthyl]ethylamino]quinoline-6-carbonitrile]	6.75	6.53	6.79	7.93	–
CN(C)C(=O)c1ccc2cc(CCNc3ccnc4ccc(C#N)cc34)ccc2c1 [compound 6219, 6-(2-((6-cyanoquinolin-4-yl)amino)ethyl)-N,N-dimethyl-2-naphthamide]	–	–	7.11	–	–
Brc1ccc2nccc(NCCc3ccccc3)c2c1 [compound 6146, 6-bromo-N-phenethylquinolin-4-amine]	–	–	–	–	Inhibition of NFκB reporter activity [1]: N.A. (10% inh. at 1 uM); inhibition at 1 µM ([1]; Homo sapiens): < 15%
FC(F)(F)c1ccc2nccc(NCCc3ccccc3)c2c1 [compound 6150, N-phenethyl-6-(trifluoromethyl)quinolin-4-amine]	–	–	–	–	Inhibition of NFκB reporter activity [1]: N.A. (10% inh. at 1 uM); inhibition at 1 µM ([1]; Homo sapiens): < 15%
CN1CCN(C(=O)c2ccc3cc(CCNc4ncnc5ccc(C#N)cc45)ccc3c2)CC1 [Senexin B, reference compound]	–	–	–	–	pIC50 [1, 6]: 6.93; Time to full restoration of JUN expression after wash-off (CDK8/19): 45 min; Time to full restoration of MYC expression after wash-off (CDK8/19): 2 h; AUC [3]: 1760.53 ng·h/mL; Cmax [3]: 4248 ng/mL; bioavailability (F %) [3]: 57%; elimination rate k [3]: 3.99 h⁻¹; t1/2 [3]: 10.2 min; pKd (CDK8): 7.23; pKd (HASPIN): 5.77; pKd (MAP4K2): 6.24; Inhibition of MYO3B (MYO3B): not inhibited
N#Cc1ccc2nccc(NCCc3ccc4cc(C(=O)N5CC[S+]([O-])CC5)ccc4c3)c2c1 [compound 6295, 4-[2-[6-(1-oxo-1,4-thiazinane-4-carbonyl)-2-naphthyl]ethylamino]quinoline-6-carbonitrile]	6.80	6.66	6.79	8.24	–
Cc1ccc(S(=O)(=O)N[C@@H](Cc2ccccc2)C(=O)CCl)cc1 [TPCK, reference compound]	–	–	–	–	IC50 in CDK8/19-deficient cells relative to wild-type cells [4]: almost the same
CC(C)(C)OC(=O)NCCCN1CCN(C(=O)c2ccc3cc(CCNc4ccnc5ccc(C#N)cc45)ccc3c2)CC1 [compound 6345, tert-butyl-(3-(4-(6-(2-((6-cyanoquinolin-4-yl)amino)ethyl)-2-naphthoyl)piperazin-1-yl)propyl)carbamate]	7.07	6.91	7.21	8.09	–
N#Cc1ccc2nccc(NCCc3ccc4cc(C(=O)N5CCN(CCCN)CC5)ccc4c3)c2c1 [compound 6346, 4-[2-[6-[4-(3-aminopropyl)piperazine-1-carbonyl]-2-naphthyl]ethylamino]quinoline-6-carbonitrile]	6.08	–	6.51	8.19	–
CC(C)Nc1ccnc2ccc(C#N)cc12 [compound 6136, 4-(isopropylamino)quinoline-6-carbonitrile]	–	–	–	–	inhibition at 1 µM (CXCL1): 80.3%; inhibition at 1 µM (IL8): 74.1%; inhibition at 1 µM (MYC): 65.6%
N#Cc1ccc2ncnc(NCCc3ccccc3)c2c1 [Senexin A, reference compound]	–	–	–	–	Inhibition at 1 μM (% Ctrl) CXCL1 (CXCL1): 34.19%; Inhibition at 1 μM (% Ctrl) IL8 (IL8): 29.53%; Inhibition at 1 μM (% Ctrl) MYC (MYC): 24.94%; pIC50 [1, 6]: 6.45
